According to patent US11673889B2, “Substituted imidazo[4,5-c][1,8]naphthyridines as phosphodiesterase inhibitors” (Nanjing Zhengxiang Pharmaceuticals Co., Ltd., priority 2019, dated 2023):

Assays:
human soluble ENPP1 [1] = target: T1, human soluble ENPP1 (Homo sapiens, UniProt P22413); assay: ENPP1 activity assay using p-Nitrophenyl-5′-AMP as a substrate; type: biochemical
T1 construct: 20 ng of human soluble ENPP1
T1 sequence (P22413 103-925 limits assumed): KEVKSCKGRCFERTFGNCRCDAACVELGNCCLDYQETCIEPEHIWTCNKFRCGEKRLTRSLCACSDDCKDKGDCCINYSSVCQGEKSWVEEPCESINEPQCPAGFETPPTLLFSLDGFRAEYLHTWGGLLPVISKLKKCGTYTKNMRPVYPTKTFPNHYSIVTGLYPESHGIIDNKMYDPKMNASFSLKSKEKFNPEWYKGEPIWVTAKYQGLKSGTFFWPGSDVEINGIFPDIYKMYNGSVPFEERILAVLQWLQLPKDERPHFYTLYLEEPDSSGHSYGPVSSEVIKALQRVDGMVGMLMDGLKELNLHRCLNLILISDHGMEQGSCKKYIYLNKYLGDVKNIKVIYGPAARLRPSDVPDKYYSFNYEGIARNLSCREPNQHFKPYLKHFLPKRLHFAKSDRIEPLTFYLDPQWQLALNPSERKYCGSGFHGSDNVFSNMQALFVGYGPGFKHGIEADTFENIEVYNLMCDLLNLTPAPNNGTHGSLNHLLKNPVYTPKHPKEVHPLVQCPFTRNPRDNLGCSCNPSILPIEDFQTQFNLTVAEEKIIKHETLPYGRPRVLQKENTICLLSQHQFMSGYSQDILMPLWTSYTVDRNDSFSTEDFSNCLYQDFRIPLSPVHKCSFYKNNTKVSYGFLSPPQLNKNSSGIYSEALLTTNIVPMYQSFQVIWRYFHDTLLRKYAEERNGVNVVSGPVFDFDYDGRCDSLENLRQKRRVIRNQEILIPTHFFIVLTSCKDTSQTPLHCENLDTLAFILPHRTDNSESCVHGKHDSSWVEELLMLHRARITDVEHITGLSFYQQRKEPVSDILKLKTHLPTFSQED
How it was run: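 Human soluble ENPP1 (35 ng) preincubated with inhibitor 30 min at RT, then p-nitrophenyl-5′-AMP added (3 mM solution, 2× final) and incubated 1 h at RT. p-Nitrophenolate release read at OD 405 nm; % inhibition vs no-inhibitor and blank controls, IC50 from four-parameter fit.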

human soluble ENPP1 [2] = target: T1, human soluble ENPP1; assay: ENPP1 activity assay using p-Nitrophenyl-5′-TMP as a substrate; type: biochemical
How it was run: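 Human soluble ENPP1 (20 ng) was preincubated with inhibitor for 30 min at room temperature. TMP-pNP was then added as a 2 mM […] solution and incubated 1 h at RT, with p-nitrophenol formation read by OD. IC50 came from four-parameter fits of % inhibition relative to no-inhibitor and blank controls.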

Pharmacokinetics in mice = type: in vivo; conditions: mouse, plasma, male CD-1 mice; for AUC / clearance / half-life / Vd: 1 mg/kg, iv; for Vd: read-out: Vdss
How it was run: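 Male CD-1 mice (3 per group) dosed at 1 mg/kg IV bolus and 5 mg/kg oral gavage in 5% DMSO/40% PEG400/55% water. Jugular blood sampled from 0.033 (IV) or 0.083 (PO) up to 24 h. Plasma measured by LC/MS/MS, with PK parameters from non-compartmental analysis.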

| SMILES | IC50 (human soluble ENPP1 [1]) | IC50 (human soluble ENPP1 [2]) | AUC (Pharmacokinetics in mice) | clearance (Pharmacokinetics in mice) | half-life (Pharmacokinetics in mice) | Vd (Pharmacokinetics in mice) | bioavailability (Pharmacokinetics in mice; oral gavage (PO) at 5 mg/kg vs IV 1 mg/kg) |
| --- | --- | --- | --- | --- | --- | --- | --- |
| COc1ccc2c(n1)nc(C)c1nc(C)n(Cc3ccc(S(N)(=O)=O)cn3)c12 [Compound 89, 6-((7-methoxy-2,4-dimethyl-1H-imidazo[4,5-c][1,8]naphthyridin-1-yl)methyl)pyridine-3-sulfonamide] | 2.1 nM | 0.52 nM | 656 ng·h/mL | 26 mL/min/kg | 32.4 min | 0.8 L/kg | – |
| COc1ccc2c(ncc3nc(C)n(Cc4ccc(S(N)(=O)=O)cc4)c32)n1 [Compound 48, 4-((7-methoxy-2-methyl-1H-imidazo[4,5-c][1,8]naphthyridin-1-yl)methyl)benzenesulfonamide] | 0.44 nM | 0.29 nM | 239 ng·h/mL | 70 mL/min/kg | 19.8 min | 1.7 L/kg | – |
| COc1cc2ncc3ncn(Cc4ccc(S(N)(=O)=O)cn4)c3c2cc1OC [Compound 12, 6-((7,8-dimethoxy-1H-imidazo[4,5-c]quinolin-1-yl)methyl)pyridine-3-sulfonamide] | 3.9 nM | 1.2 nM | 93 ng·h/mL | 180 mL/min/kg | 15 min | 2.9 L/kg | 0% |
